Source: article PMC11539218 (Antimicrobial Agents and Chemotherapy, 2024)

Assays:
[1] = tested on: L. (L.) infantum promastigotes; test: Short-time incubation IC50 assay in promastigotes (MTT); type: cell-based, Leishmania (L.) infantum; details: Leishmania infantum, promastigotes 2 × 10^6/well, 4 h of treatment, read-out: IC50 (50% inhibitory concentration), short-time incubation
Description: All experiments were performed with L. (L.) infantum promastigotes in the late-grown phase using a Hanks-Balanced Salt Solution medium supplemented with D-glucose (10 mM), exceptions were described. To establish the ideal time and concentration to investigate the mechanism of action (MoA), a new IC50 assay was performed in promastigotes in short-time incubation. Parasites (2 × 10^6/well) were treated with compound 1 serially diluted (1.6 to 300 µM) for 1, 2, 3, and 4 h, at 24°C. Parasite viability was determined using the MTT colorimetric method ([16]). Untreated cells were employed as a negative control.

[2] = tested on: L. (L.) infantum promastigotes; test: Mitochondrial membrane electric potential (JC-1, flow cytometry); type: cell-based, Leishmania (L.) infantum; details: compound 1 169.2 µM, CCCP 10 µM; 2 and 4 h; JC-1 BL-2/BL-1 ratio; vs untreated
Description: Promastigotes (2 × 10^6/well) were treated with compound 1 (169.2 µM) for 2 and 4 h, at 24°C. Then, JC-1 (10 µM) was added and the parasites were incubated for 20 min. Fluorescence was measured in a flow cytometer with an excitation wavelength of 488 nm and emission of 530 (BL-1) and 574 nm (BL-2). Mitochondrial membrane potential was established through the ratio of BL-2/BL-1 channels ([19]). Carbonyl cyanide m-chlorophenylhydrazone (CCCP) (10 µM) was employed as positive control and untreated parasites as negative control.

[3] = tested on: L. (L.) infantum promastigotes; type: cell-based, Leishmania (L.) infantum; details: compound 1 169.2 µM, sodium azide 10 mM; 2 and 4 h; H2DCFDA; vs untreated
Description: Promastigotes (2 × 10^6/well) were treated with compound 1 (169.2 µM) for 2 and 4 h, at 24°C. Later, H2DCFDA (5 µM) was added and the parasites were incubated for 15 min. Fluorescence was monitored in a spectrofluorometer with excitation and emission wavelengths of 485 and 535 nm, respectively ([19]). Sodium azide (10 mM) was employed as positive control and untreated parasites as negative control.

[4] = tested on: L. (L.) infantum promastigotes; test: Cell cycle (propidium iodide, flow cytometry); type: cell-based, Leishmania (L.) infantum; details: 24 h; compound 1 169.2 µM, miltefosine 25 µM
Description: Promastigotes (2 × 10^6/well) in exponential phase, were treated with compound 1 (169.2 µM) in M199 medium supplemented with 10% FBS and 0.25% hemin, pH 7.2, for 24 h at 24°C. In sequence, 70% (vol/vol) ice-cold ethanol was used for cell permeabilization overnight at −20°C. Then, the parasites were incubated with propidium iodide (10 µg/mL) and RNase A (20 µg/mL) for 30 min. […] Miltefosine (25 µM) was employed as positive control and untreated parasites as negative control ([25]).

[5] = tested on: L. (L.) infantum promastigotes; test: DNA content / integrity (agarose gel electrophoresis); type: cell-based, Leishmania (L.) infantum; details: compound 1 169.2 µM, H2O2 10 mM; 24 h; 2% agarose gel
Description: Promastigotes (1 × 10^7/well) were treated with compound 1 (169.2 μM) in M199 medium supplemented with 10% FBS and 0.25% hemin, pH 7.2, for 24 h at 24°C. Then, the genetic material was extracted using the QIAamp DNA Mini Kit, according to the manufacturer’s instructions. Total DNA quantification was performed in a NanoDrop ND-1000 spectrophotometer (260/280 nm). The purified genetic material (300 ng) was analyzed by electrophoresis for 1 h at […] in a 2% agarose gel with ethidium bromide (0.5 µg/mL). Visualization was performed under UV light in a MiniBIS Pro transilluminator (DNR Bio Imaging System) ([21]). H2O2 (10 mM) was employed as positive control and untreated parasites as negative control ([26]).

[6] = tested on: L. (L.) infantum promastigotes; test: Total proteins of the parasite; type: cell-based, Leishmania (L.) infantum; details: promastigotes after treatment
[7] = Stability in plasma under handling and storage conditions (HPLC); type: in vitro ADME
Description: The detection and quantification of compound 1 in the blood matrices were performed after sample processing, using a liquid-liquid extraction methodology. First, 100 µL of plasma was enriched with 10 µL of PI (0.8 µg/mL). Subsequently, 500 µL of hexane was added and the mixture was vortexed for 1 min and centrifuged at 22,082 × g for 5 min. The organic phase was collected in glass tubes and the aqueous phase was subjected to the liquid-liquid extraction procedure again. In the end, the combined organic samples were completely evaporated at 60°C under nitrogen flow and reconstituted in 100 µL of 40:60 ACN:H2O + 0.1% orthophosphoric acid (pH 2.08). Finally, the extracts were centrifuged at 22,082 × g for 2 min and injected into the chromatographic system. Chromatographic analyses by HPLC were performed using a C18 column (Purospher Star LiChroCART, 55 × 4 mm, 3 µm) with gradient elution (Table 1).
Method validation was performed following the guidelines for bioanalytical methods validation of the Food and Drug Administration and European Medicines Agency ([29], [30]). Thus, the acceptance criteria set out in these guides were adopted for the parameters of selectivity, linearity, precision, accuracy, lower limit of quantification (LLOQ), and stability. Quality controls of the lower limit of quantification (QCLOQ—0.03 µg/mL), low (QC1—0.08 µg/mL), medium (QC2—2 µg/mL), and high (QC3—5 µg/mL), were also established in accordance with the guides. […] In addition, stability was established after exposure to different conditions, mimicking storage and handling throughout the experimental process (Table 2).

C=CCc1cc(OC)c(OCc2ccc(OC)cc2)c(Oc2ccc(CN3CCOCC3)cc2OC)c1 [compound 1, 4-(4-(5-allyl-3-methoxy-2-((4-methoxybenzyl)oxy)phenoxy)-3-methoxybenzyl)morpholine]
IC50 [1]: 169 µM | mitochondrial membrane electric potential (ΔΨm) [2]: significant depolarization | ROS levels [3]: significant reduction | Proportion of parasites in different phases of the cell cycle (% ± SD): G0/G1 [4]: 46.6 ± 0.7 % | Proportion of parasites in different phases of the cell cycle (% ± SD): M/G2 [4]: 17.9 ± 0.5% | Proportion of parasites in different phases of the cell cycle (% ± SD): S [4]: 11.1 ± 1.3% | Proportion of parasites in different phases of the cell cycle (% ± SD): Sub G0 [4]: 7.5 ± 0.7 % | integrity of the genetic content (DNA) [5]: no alterations | total protein level [6]: increased level of total protein | Stability/reference analyte concentration (%) ([7]; 0.08 µg/mL, processed sample, 2 h at room temperature): 98.35% | Stability/reference analyte concentration (%) ([7]; 0.08 µg/mL, processed sample, 24 h at 4°C): 99.12% | Stability/reference analyte concentration (%) ([7]; 0.08 µg/mL, unprocessed sample, 2 h at room temperature): 86.54% | Stability/reference analyte concentration (%) ([7]; 0.08 µg/mL, unprocessed sample, 6 h at 4°C): 91.74% | Stability/reference analyte concentration (%) ([7]; 0.08 µg/mL, unprocessed sample, 24 h at 4°C): 87.07% | Stability/reference analyte concentration (%) ([7]; 0.08 µg/mL, unprocessed sample, 15 days at −20°C): 85.36% | Stability/reference analyte concentration (%) ([7]; 0.08 µg/mL, unprocessed sample, 30 days at −20°C): 92.66% | Stability/reference analyte concentration (%) ([7]; 0.08 µg/mL, unprocessed sample, freezing/thawing): 88.58% | Stability/reference analyte concentration (%) ([7]; 5.00 µg/mL, processed sample, 2 h at room temperature): 100.43% | Stability/reference analyte concentration (%) ([7]; 5.00 µg/mL, processed sample, 24 h at 4°C): 98.84% | Stability/reference analyte concentration (%) ([7]; 5.00 µg/mL, unprocessed sample, 2 h at room temperature): 90.90% | Stability/reference analyte concentration (%) ([7]; 5.00 µg/mL, unprocessed sample, 6 h at 4°C): 95.92% | Stability/reference analyte concentration (%) ([7]; 5.00 µg/mL, unprocessed sample, 24 h at 4°C): 91.65% | Stability/reference analyte concentration (%) ([7]; 5.00 µg/mL, unprocessed sample, 15 days at −20°C): 90.53% | Stability/reference analyte concentration (%) ([7]; 5.00 µg/mL, unprocessed sample, 30 days at −20°C): 93.24% | Stability/reference analyte concentration (%) ([7]; 5.00 µg/mL, unprocessed sample, freezing/thawing): 97.49%
